From patent publication US20220380477A1 (priority 2019, published 2022)

Test system: SNU-C5/WT
Conditions: mouse, in vivo

**Q.** `O=c1[nH]cc(F)c(=O)[nH]1` [5FU, 5-fluorouracil] was tested. Which “cell proliferation of tumor cells (Ki67 fluorescence staining)” value did it give?
**A.** Its value is “not able to decrease the proliferative ability of tumor cells”.

**Q.** And the “tumor formation (tumor volume)” value?
**A.** The value was “does not effectively inhibit tumor formation”.
